From patent US6737433B1, “1-N-phenylamino-1H-imidazole derivatives as aromatase inhibitors and pharmaceutical compositions containing them” (Laboratoire Theramex, priority 2002, dated 2004) come the findings set out here.

One series concerns the target T1, human aromatase (Homo sapiens, UniProt P11511).
T1 construct: The JEG-3 cell line, derived from a human placental choriocarcinoma, is intrinsically very rich in human aromatase; endogenous in cells; host or cells: JEG-3 (human placental choriocarcinoma)
T1 sequence (P11511 1-503): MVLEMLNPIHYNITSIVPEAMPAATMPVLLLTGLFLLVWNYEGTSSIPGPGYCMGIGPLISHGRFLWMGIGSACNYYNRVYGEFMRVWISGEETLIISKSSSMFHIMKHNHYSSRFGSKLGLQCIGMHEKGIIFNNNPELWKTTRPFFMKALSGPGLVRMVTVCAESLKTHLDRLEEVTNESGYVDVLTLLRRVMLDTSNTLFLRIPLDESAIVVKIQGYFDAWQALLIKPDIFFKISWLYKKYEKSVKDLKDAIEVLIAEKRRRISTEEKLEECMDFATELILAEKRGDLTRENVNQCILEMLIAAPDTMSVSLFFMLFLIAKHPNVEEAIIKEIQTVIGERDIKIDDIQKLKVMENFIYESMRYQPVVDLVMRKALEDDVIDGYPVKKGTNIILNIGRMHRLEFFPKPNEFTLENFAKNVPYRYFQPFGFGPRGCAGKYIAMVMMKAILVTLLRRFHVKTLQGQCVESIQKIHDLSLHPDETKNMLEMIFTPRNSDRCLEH
In words: Inhibition of human aromatase in vitro in JEG-3 cells (3H-water release from 1β-3H-androstenedione). The format is cell-based. Particulars: 10 nM 1β-3H-androstenedione, 2 h incubation. The method, then:
Stocks of JEG-3 cells are grown up to 80% of confluence as monolayers in plastic flasks in minimum Eagle's medium with 1 g/l glucose and 10% decomplemented fetal calf serum at pH 7.4 and 37° C., under a 5% CO2 atmosphere. Then, 24 hours before aromatase activity measurement, JEG-3 cells are distributed for seeding in 96-well microplates (60,000 to 100,000 viable cells in 100 μl of culture medium per well); 24 hours later, microplates are rinsed and fresh medium containing the radioactive aromatase substrate (1β-^3H-androstenedione, 10 nM) is added together with test compounds dissolved with 1% dimethylsulfoxyde in a test concentration range between 10^−11 and 10^−4 M in a total volume of 150 μl.
Two hours after the beginning of the incubation, 100 μl of the supernatants are transferred to homologous new 96-well microplates. A solution of dextran-coated charcoal (1%) is added in each well (100 μl/well); after standing for 10 minutes on ice, microplates are centrifuged (1500 g) for 10 more minutes at 4° C. All steroids, including the radioactive substrate and the newly biosynthesized estrogens, are trapped complexed by the charcoal; only the ^3H-water specifically formed during aromatisation of 1β-^3H-androstenedione, involving a specific oxidative step removing the 1β-^3H, remains in the supernatant at this stage.
Finally, aromatase activity is expressed in fmoles/μg DNA in 2 hours and aromatase inhibition in percentage of control incubation without inhibitors.

Molecules are shown by their SMILES. Where a name gives a salt, the structure may show the parent alone.

With `Cc1ncn(N(Cc2ccc(Br)cc2)c2ccc(C#N)cc2)c1C` [Example 32, 4-[N-(4,5-dimethyl-1H-imidazol-1-yl)-N-(4-bromophenylmethyl)amino]benzonitrile], the melting point turned out to be 150 °C.
Compound `N#Cc1ccc(CN(c2ccc(C#N)cc2C(F)(F)F)n2ccnc2)cc1` [Example 23, 4-[N-(1H-imidazol-1-yl)-N-(4-cyanophenylmethyl)amino]-3-trifluoromethylbenzonitrile] had a melting point of 226 °C. Besides, the IC50 on human aromatase is 0.48 ± 0.13 nM.
For `N#Cc1ccc(N(Cc2cc(F)cc(F)c2)n2ccnc2)cc1` [Example 19, 4-[N-(1H-imidazol-1-yl)-N-(3,5-difluorophenylmethyl)amino]benzonitrile], in that order: 170 °C and 0.4 ± 0.06 nM.
In turn, `COC(=O)c1ccc(CN(c2ccc(C#N)cc2)n2ccnc2)cc1` [Example 27, Methyl 4-[N-(4-cyanophenyl)-N-(1H-imidazol-1-yl)aminomethyl]benzoate] showed a melting point of 178 °C.
Take `N#Cc1ccc(N(c2ccc(C#N)cc2C(F)(F)F)n2ccnc2)cc1` [Example 25, 4-[N-(1H-imidazol-1-yl)-N-(4-cyanophenyl)amino]-3-trifluoromethylbenzonitrile]: the melting point came to 166 °C. At human aromatase, this compound gave a half-inhibitory concentration (IC50) of 0.66 ± 0.14 nM.
Turning to `N#Cc1ccc(N(c2ccc(C#N)cc2)n2ccnc2)cc1` (as salt: hydrochloride) [Example 13, 4,4′-[N-(1H-imidazol-1-yl)amino]bis-benzonitrile], the melting point worked out at 199 °C.
The compound `N#Cc1ccc(N(Cc2ccc(Cl)cc2)n2ccnc2)cc1` (as salt: hydrochloride) [Example 7, 4-[N-(1H-imidazol-1-yl)-N-(4-chlorophenylmethyl)amino]benzonitrile] displayed a melting point of 190 °C.
The compound `N#Cc1ccc(N(Cc2ccccc2)n2ccnc2)cc1` [Example 24, 4-[N-(1H-imidazol-1-yl)-N-(phenylmethyl)amino]benzonitrile] came in with a melting point of 107 °C. Moreover, the IC50 at human aromatase was 0.18 ± 0.09 nM.
On human aromatase, `COc1ccc(CN(c2ccc(C#N)cc2)n2ccnc2)cc1F` [Example 9, 4-[N-(1H-imidazol-1-yl)-N-(3-fluoro-4-methoxyphenylmethyl)amino]benzonitrile] displayed a half-maximal inhibitory concentration (IC50) of 0.16 ± 0.06 nM.
The same measure, in the same setting: next, `COc1ccc(CN(c2ccc(C#N)cc2)n2ccnc2)cc1` [Example 8, 4-[N-(1H-imidazol-1-yl)-N-(4-methoxyphenylmethyl)amino]benzonitrile]: 0.14 ± 0.05 nM.
`COc1ccc(CN(c2ccc(C#N)cc2)n2ccnc2)cc1` (as salt: hydrochloride) [Example 8, 4-[N-(1H-imidazol-1-yl)-N-(4-methoxyphenylmethyl)amino]benzonitrile] yielded a melting point of 178 °C.
On to `CSc1ccc(CN(c2ccc(C#N)cc2)n2ccnc2)cc1` [Example 15, 4-[N-(1H-imidazol-1-yl)-N-(4-methylthiophenylmethyl)amino]benzonitrile], for which the melting point is 128 °C. Moreover, the IC50 against human aromatase was 0.21 ± 0.05 nM.
Compound `N#Cc1ccc(N(Cc2cccc(F)c2)n2ccnc2)cc1` [Example 26, 4-[N-(1H-imidazol-1-yl)-N-(3-fluorophenylmethyl)amino]benzonitrile] displayed a melting point of 112 °C. Inhibition against human aromatase was half-maximal at 0.13 ± 0.05 nM (IC50).
As for `COc1ccc(CN(c2ccc(C#N)cc2)n2ccnc2)cc1OC` (as salt: hydrochloride) [Example 12, 4-[N-(1H-imidazol-1-yl)-N-(3,4-dimethoxyphenylmethyl)amino]benzonitrile], the melting point worked out at 167 °C.
Consider `N#Cc1ccc(N(c2ccc(C(F)(F)F)cc2)n2ccnc2)cc1` [Example 5, 4-[N-(1H-imidazol-1-yl)-N-(4-trifluoromethylphenyl)amino]benzonitrile], for which the concentration for half-maximal inhibition (IC50) against human aromatase was 0.54 ± 0.26 nM.
In turn, `N#Cc1ccc(N(Cc2cccc(C(F)(F)F)c2)n2ccnc2)cc1` [Example 29, 4-[N-(1H-imidazol-1-yl)-N-(3-trifluoromethylphenylmethyl)amino]benzonitrile] registered a melting point of 122 °C. At human aromatase, the IC50 was determined as 0.19 ± 0.05 nM.
As for `N#Cc1ccc(N(c2ccc(C#N)cc2)n2ccnc2)cc1` [Example 13, 4,4′-[N-(1H-imidazol-1-yl)amino]bis-benzonitrile], inhibition against human aromatase was half-maximal at 0.44 ± 0.04 nM (IC50).
For the compound `N#Cc1ccc(N(c2ccc(F)cc2)n2ccnc2)cc1` [Example 28, 4-[N-(1H-imidazol-1-yl)-N-(4-fluorophenyl)amino]benzonitrile], the melting point worked out at 113 °C. For the same compound, the IC50 against human aromatase worked out at 1.57 ± 0.74 nM.
Consider `COc1ccc(CN(c2ccc(C#N)cc2)n2ccnc2)cc1F` (as salt: hydrochloride) [Example 9, 4-[N-(1H-imidazol-1-yl)-N-(3-fluoro-4-methoxyphenylmethyl)amino]benzonitrile], for which the melting point is 190 °C.
`Cc1cncn1N(Cc1ccc(Br)cc1)c1ccc(C#N)cc1` [Example 31, 4-[N-(5-methyl-1H-imidazol-1-yl)-N-(4-bromophenylmethyl)amino]benzonitrile] yielded a melting point of 152 °C. Besides, the half-inhibitory concentration (IC50) against human aromatase is 0.58 ± 0.18 nM.
As to `N#Cc1ccc(CN(c2ccc(C#N)cc2)n2ccnc2)cc1` (as salt: hydrochloride) [Example 11, 4-[N-(1H-imidazol-1-yl)-N-(4-cyanophenylmethyl)amino]benzonitrile], the melting point amounted to 195 °C.
`Cn1nnc2ccc(N(Cc3ccc(C#N)cc3)n3ccnc3)cc21` [Example 22, 4-[N-(1-methylbenzotriazol-6-yl)-N-(1H-imidazol-1-yl)aminomethyl]benzonitrile]: the melting point came out at 184 °C. For the same compound, on human aromatase, the midpoint of inhibition, the IC50, lay at 0.2 ± 0.05 nM.
For the compound `CS(=O)(=O)c1ccc(CN(c2ccc(C#N)cc2)n2ccnc2)cc1` [Example 16, 4-[N-(1H-imidazol-1-yl)-N-(4-methylsulfonylphenylmethyl)amino]benzonitrile], on human aromatase, the IC50 worked out at 0.35 ± 0.07 nM.
`N#Cc1ccc(N(Cc2ccc(Br)cc2)n2ccnc2)cc1` (as salt: hydrochloride) [Example 20, 4-[N-(1H-imidazol-1-yl)-N-(4-bromophenylmethyl)amino]benzonitrile] returned a melting point of 125 °C.
For the compound `N#Cc1ccc(N(Cc2ccc(F)cc2F)n2ccnc2)cc1` [Example 18, 4-[N-(1H-imidazol-1-yl)-N-(2,4-difluorophenylmethyl)amino]benzonitrile], the melting point came to 149 °C. The same compound yielded an IC50 at human aromatase of 0.14 ± 0.01 nM.
Turning to `N#Cc1ccc(CN(c2ccc(Br)cc2)n2ccnc2)cc1` [Example 21, 4-[N-(1H-imidazol-1-yl)-N-(4-bromophenyl)aminomethyl]benzonitrile], the melting point was 138 °C. This compound had an IC50 at human aromatase of 1.12 ± 0.55 nM.
On to `N#Cc1ccc(N(Cc2ccc(Br)cc2)n2ccnc2)cc1` [Example 20, 4-[N-(1H-imidazol-1-yl)-N-(4-bromophenylmethyl)amino]benzonitrile], for which the IC50 against human aromatase turned out to be 0.22 ± 0.05 nM.
Consider `N#Cc1ccc(N(Cc2ccc(F)cc2)n2ccnc2)cc1` (as salt: hydrochloride) (hydrate or solvate) [Example 14, 4-[N-(1H-imidazol-1-yl)-N-(4-fluorophenylmethyl)amino]benzonitrile], for which the melting point lay within 176 to 178 °C.
`Cc1ccc(CN(c2ccc(C#N)cc2)n2ccnc2)cc1` [Example 10, 4-[N-(1H-imidazol-1-yl)-N-(4-methylphenylmethyl)amino]benzonitrile] had a melting point of 156 °C. The half-maximal inhibitory concentration (IC50) at human aromatase worked out at 0.14 ± 0.03 nM.
The compound `Cc1cn(N(Cc2ccc(Br)cc2)c2ccc(C#N)cc2)cn1` [Example 30, 4-[N-(4-methyl-1H-imidazol-1-yl)-N-(4-bromophenylmethyl)amino]benzonitrile] gave a melting point of 152 °C. Further, it took 1.16 ± 0.55 nM to reach half-maximal inhibition on human aromatase (IC50).
